Numbers after ± are expanded uncertainties.
Conditions: Liquid, Ebulliometric method (Recirculating still)

Which “vapor or sublimation pressure” value (439.25 K) does the source give for `CC(=O)N(C)C` [N,N-dimethylethanamide] here?
Its value is 101.33 ± 0.58 kPa.

Which “vapor or sublimation pressure” value (353.25 K) does the source give for `c1ccccc1` [benzene] here?
Its value is 101.33 ± 0.55 kPa.

With `C1CCCCC1` [cyclohexane] as the compound, how does the “vapor or sublimation pressure” value (353.85 K) read?
The value was 101.33 ± 0.55 kPa.

For `C1=CCCCC1` [cyclohexene], which “vapor or sublimation pressure” value (356.15 K) is on record?
The value was 101.33 ± 0.55 kPa.

Source: the NIST ThermoML archive (doi:10.1021/acs.jced.5b00011)
